Experimental data from EPA's ToxValDB 9.5 (doi:10.2903/j.efsa.2009.339r).

Assays:
[1] = tested on: Oncorhynchus mykiss
[2] = tested on: Anas platyrhynchos
[3] = tested on: Apis mellifera; conditions: acute; duration: 48 hours; oral; unspecified; mortality
[4] = tested on: Colinus virginianus
[5] = tested on: Tagia sp.; conditions: acute; mortality
[6] = tested on: Rattus norvegicus; conditions: acute; oral; mortality
[7] = tested on: Bibionidae; conditions: chronic/long-term; duration: 28 days
[8] = reproductive; oral; feed
[9] = tested on: Daphnia magna; conditions: chronic/long-term; duration: 21 days; reproduction
[10] = tested on: Canidae; conditions: chronic; duration: 1 years; oral; Dog Other; clinical chemistry
[11] = tested on: Typhlodromus pyri; assay: LR50; higher = less toxic; conditions: acute; duration: 14 days; mortality

CCC(C)(C)C(=O)OC1=C(c2ccc(Cl)cc2Cl)C(=O)OC12CCCCC2 [Spirodiclofen]
LC50 ([1]; acute, duration: 96 hours, mortality): > 0.0351 µg/mL
NOEC ([1]; chronic/long-term, duration: 97 days, time to hatch): 0.00195 mg/L
NOEC ([2]; reproductive): 111 mg/kg-day
LC50 ([2]; short-term, oral, feed, mortality): > 2270 mg/kg-day
LD50 [3]: > 196 µg/piece
LC50 ([4]; acute, oral, diet, mortality): > 1060 mg/kg-day
LD50 ([4]; acute, oral, mortality): > 2000 mg/kg
NOEC ([4]; reproduction developmental): 51 mg/kg-day
LC50 [5]: > 1000 mg/kg
LD50 [6]: > 2500 mg/kg
NOEC [7]: 0.032 mg/L
NOEC [8]: 6 mg/kg-day
NOEC [9]: 0.0111 mg/L
NOAEL [10]: 1.45 mg/kg-day
LR50 [11]: 2.4 g/ha
